Test [1] has as its system cell-free peptide synthesis system derived from Escherichia coli. Description: Cell-free biosynthesis of the integrin binding peptide fusion protein with N-terminal tag, 1 hour reaction, amount measured by ELISA. Particulars: fusion protein SEQ ID NO: 5; for Biosynthesis amount of fusion protein: relative value, control example without tag = 1, 37° C. for 1 hour, average of two measurements. Format: biochemical. An excerpt: In the cell-free peptide synthesis system derived from Escherichia coli, the effect of the VKKX tag on the biosynthesis amount of the polypeptide was examined. As a polypeptide to be biosynthesized, an integrin binding peptide containing cysteine and chloroacetyl lysine was selected. In this polypeptide, a thiol group of cysteine and a chloroacetyl group of chloroacetyl lysine spontaneously form a thioether bond to become a cyclic polypeptide.
A fusion protein in which an integrin binding peptide, a Myc tag, and a HiBiT tag were linked in this order was designed. As a spacer, Gly-Gly-Ser was inserted between the integrin binding peptide and the Myc tag and between the Myc tag and the HiBiT tag. The amino acid sequence of this fusion protein is SEQ ID NO: 5, and the base sequence encoding this fusion protein is SEQ ID NO: 6. In SEQ ID NO: 5, the integrin binding peptide ranges to the amino acid at the twelfth position (that is, alanine) from an N-terminal, and the amino acid at eleventh position from the N-terminal is chloroacetyl lysine. The triplet TAG at the positions 31 to 33 from the 5′ terminal of the base sequence set forth in SEQ ID NO: 6 was assigned to the codon of chloroacetyl lysine. The end of the base sequence set forth in SEQ ID NO: 6 is the stop codon TAA.
A base sequence encoding a tagged fusion protein in which methionine, a VKKX tag (any of SEQ ID nOs: 7 to 52), and a fusion protein (SEQ ID NO: 5) were linked in this order was designed. In this base sequence, a base sequence (any of SEQ ID nOs: 53 to 98) encoding a VKKX tag is arranged immediately after the start codon ATG, and a base sequence encoding a fusion protein immediately after the base sequence (SEQ ID NO: 6) encoding the VKKX tag is arranged.
As a control example for evaluating the effect of the VKKX tag, a base sequence in which a base sequence (SEQ ID NO: 6) encoding a fusion protein arranged immediately after the start codon ATG was designed.
In order to translate chloroacetyl lysine which is an unnatural amino acid, a tRNA in which the anticodon was CUA and paired with the UAG codon of mRNA was prepared. This tRNA was aminoacylated with an N-chloroacetyl lysine hosphoro 2′ deoxyribocytidylylriboadenosine (pdCpA) ester. This aminoacyl tRNA is referred to as an Aminoacyl tRNA (1).
(§1) The cell-free biosynthesis of the polypeptide was carried out in a translation solution containing a template DNA, PUREfrex 2.0 (GeneFrontier, PF201-0.25-5), and Aminoacyl tRNA (1). 1.25 μL (62.5 ng) of the template DNA prepared to 50 ng/μL, 2.5 μL of PUREfrex 2.0 Solution I, 0.25 μL of Solution II, 0.5 μL of Solution III, and 0.5 μL of Aminoacyl tRNA (1) were mixed and mixture was subjected to a reaction at 37° ° C. for 1 hour.
The amount of the biosynthesized polypeptide was measured by ELISA. 50 ng of Recombinant Human Integrin αVβ3 (R&D systems, 3050-AV-050) was immobilized in each well of a 96-well plate and blocked with Blocker Casein in PBS (Thermo, 37528), and then a cell-free biosynthesis solution diluted with Can Get Signal Immunoreaction Enhancer Solution I (TOYOBO, NKB-101) containing 5 mmol/L MgCl2 was added thereto, and the mixture was subjected to a reaction at room temperature for 3 hours. After washing with 5 mmol/L MgCl2/0.05% Tween 20-containing phosphate buffered saline (PBS), an anti-Myc antibody (Cell Signaling, 14038S) diluted with Can Get Signal Immunoreaction Enhancer Solution II (TOYOBO, NKB-101) was added thereto, and the mixture was subjected to a reaction at room temperature for 2 hours. After washing with PBS containing 5 mmol/L MgCl2/0.05% Tween 20, Super Signal ELISA Femto Substrate (Thermo, 37075) was added thereto, and the luminescence was measured. The amount of the fusion protein in the cell-free biosynthesis solution was calculated based on a calibration curve created from the fusion protein having a known concentration. The luminescence measurement was performed twice, and the average value of the amounts of the fusion protein was calculated. […]
(An ELISA detects its analyte on a solid surface through an enzyme-linked reagent.)

Test [2] has the same test system. Description: Cell-free biosynthesis of the integrin binding peptide fusion protein with tag, reaction time 10 minutes, ELISA. It is filed as biochemical. Particulars: relative value, control without tag = 1; reaction time 10 minutes; fusion protein SEQ ID NO: 5; SKIK encoded by SEQ ID NO: 110. How it is done: as §1
The amount of the biosynthesized polypeptide was measured by ELISA. 50 ng of Recombinant Human Integrin αVβ3 (R&D systems, 3050-AV-050) was immobilized in each well of a 96-well plate and blocked with Blocker Casein in PBS (Thermo, 37528), and then a cell-free biosynthesis solution diluted with Can Get Signal Immunoreaction Enhancer Solution I (TOYOBO, NKB-101) containing 5 mmol/L MgCl2 was added thereto, and the mixture was subjected to a reaction at room temperature for 3 hours. After washing with 5 mmol/L MgCl2/0.05% Tween 20-containing phosphate buffered saline (PBS), an anti-Myc antibody (Cell Signaling, 14038S) diluted with Can Get Signal Immunoreaction Enhancer Solution II (TOYOBO, NKB-101) was added thereto, and the mixture was subjected to a reaction at room temperature for 2 hours. After washing with PBS containing 5 mmol/L MgCl2/0.05% Tween 20, Super Signal ELISA Femto Substrate (Thermo, 37075) was added thereto, and the luminescence was measured. The amount of the fusion protein in the cell-free biosynthesis solution was calculated based on a calibration curve created from the fusion protein having a known concentration. The luminescence measurement was performed twice, and the average value of the amounts of the fusion protein was calculated. Table 2-1 and Table 2-2 show relative values of the biosynthesis amounts of respective fusion proteins in a case where the amount of the fusion protein of the control example was set to the reference value 1.
As a comparative control, a SKIK tag represented by SEQ ID NO: 107 was selected. The polypeptide to be biosynthesized is the fusion protein containing the integrin binding peptide, as in Example 1.
Using a template DNA including DNA sequences (SEQ ID NOs: 73 to 98) encoding VKKX tags represented by SEQ ID NOs: 27 to 52 produced in Example 1, and a DNA sequence (SEQ ID NO: 110) encoding a SKIK tag represented by SEQ ID NO: 107 produced in Example 2, the biosynthesis reaction was performed in the same manner as in Example 1 by setting the reaction time to 10 minutes. In the same manner in Example 1, the fusion protein was expressed by the cell-free peptide synthesis system and quantified by ELISA. The measurement was performed twice, and the average value of the amounts of the fusion protein was calculated. […] As control example used in Example 1, the control example of the reference value 1 has a form in which the base sequence (SEQ ID NO: 6) encoding the fusion protein is arranged immediately after the start codon ATG.

Test [3] concerns the target T1, Recombinant Human Integrin αVβ3 (R&D systems, 3050-AV-050) (human, UniProt P06756 31-992; P05106 27-718).
T1 construct: Bought heterodimer
Kind of test: SPR (Biacore T-100): peptide immobilized on CM5 chip, integrin αVβ3 injected at 10, 30, 100, 300 nmol/L, 5 mmol/L MgCl2. As to the method:
In addition, as a comparative control, the binding ability (Kd value) of the integrin binding peptide was measured by the SPR method. An integrin binding peptide (SEQ ID NO: 126) was chemically synthesized and immobilized on a CM5 chip (Cytiva, BR100530) by an amine coupling method. The binding ability of the immobilized integrin binding peptide to Recombinant Human Integrin αVβ3 (R&D systems, 3050-AV-050) was measured using Biacore T-100 (Cytiva). As the measurement buffer, an HBS-N buffer (Cytiva, BR100670) in which MgCl₂ was added such that the final concentration was 5 mmol/L, and integrin was added thereto at a concentration of 10, 30, 100, or 300 nmol/L for 10 minutes. The CM5 chip was regenerated and used by repeating the addition of 500 mmol/L EDTA for 10 minutes twice.
(In general: SPR reads the build-up and loss of mass on a sensor chip optically.)

The results in this text go back to US20240247253A1, “PRODUCTION METHOD OF POLYPEPTIDE, TAG, EXPRESSION VECTOR, EVALUATION METHOD OF POLYPEPTIDE, PRODUCTION METHOD OF NUCLEIC ACID DISPLAY LIBRARY, AND SCREENING METHOD” (FUJIFILM Corporation, priority 2021, published 2024).

Ends that are not written are not given here. * marks the point of attachment. ClAc = O=C(CCl)*

T1 sequence (P06756 31-992 limits assumed, chain 1 of 2): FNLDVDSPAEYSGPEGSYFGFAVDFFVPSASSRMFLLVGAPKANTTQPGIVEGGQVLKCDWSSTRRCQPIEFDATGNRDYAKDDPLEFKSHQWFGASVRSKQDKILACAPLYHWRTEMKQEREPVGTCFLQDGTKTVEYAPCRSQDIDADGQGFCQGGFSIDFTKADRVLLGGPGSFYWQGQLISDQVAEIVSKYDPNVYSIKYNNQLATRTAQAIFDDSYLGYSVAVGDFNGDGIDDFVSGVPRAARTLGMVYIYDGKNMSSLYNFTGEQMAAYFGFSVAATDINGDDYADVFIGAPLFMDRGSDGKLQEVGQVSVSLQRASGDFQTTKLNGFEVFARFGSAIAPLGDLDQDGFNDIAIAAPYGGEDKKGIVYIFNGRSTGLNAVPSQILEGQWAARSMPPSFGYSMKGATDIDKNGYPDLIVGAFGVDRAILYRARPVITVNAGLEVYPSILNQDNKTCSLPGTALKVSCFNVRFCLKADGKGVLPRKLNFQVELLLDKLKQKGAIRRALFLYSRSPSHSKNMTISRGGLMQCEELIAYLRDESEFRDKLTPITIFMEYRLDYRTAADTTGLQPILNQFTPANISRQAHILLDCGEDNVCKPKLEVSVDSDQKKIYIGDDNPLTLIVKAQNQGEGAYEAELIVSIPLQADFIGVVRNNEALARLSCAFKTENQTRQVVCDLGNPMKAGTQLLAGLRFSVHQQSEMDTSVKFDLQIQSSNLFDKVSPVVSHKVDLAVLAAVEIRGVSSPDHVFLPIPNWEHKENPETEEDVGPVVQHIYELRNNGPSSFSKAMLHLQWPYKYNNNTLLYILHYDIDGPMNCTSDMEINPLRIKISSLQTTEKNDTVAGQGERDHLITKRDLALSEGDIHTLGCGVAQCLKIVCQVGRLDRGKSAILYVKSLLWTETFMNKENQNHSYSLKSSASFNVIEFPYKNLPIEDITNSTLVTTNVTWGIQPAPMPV
T1 sequence (P05106 27-718 limits assumed, chain 2 of 2): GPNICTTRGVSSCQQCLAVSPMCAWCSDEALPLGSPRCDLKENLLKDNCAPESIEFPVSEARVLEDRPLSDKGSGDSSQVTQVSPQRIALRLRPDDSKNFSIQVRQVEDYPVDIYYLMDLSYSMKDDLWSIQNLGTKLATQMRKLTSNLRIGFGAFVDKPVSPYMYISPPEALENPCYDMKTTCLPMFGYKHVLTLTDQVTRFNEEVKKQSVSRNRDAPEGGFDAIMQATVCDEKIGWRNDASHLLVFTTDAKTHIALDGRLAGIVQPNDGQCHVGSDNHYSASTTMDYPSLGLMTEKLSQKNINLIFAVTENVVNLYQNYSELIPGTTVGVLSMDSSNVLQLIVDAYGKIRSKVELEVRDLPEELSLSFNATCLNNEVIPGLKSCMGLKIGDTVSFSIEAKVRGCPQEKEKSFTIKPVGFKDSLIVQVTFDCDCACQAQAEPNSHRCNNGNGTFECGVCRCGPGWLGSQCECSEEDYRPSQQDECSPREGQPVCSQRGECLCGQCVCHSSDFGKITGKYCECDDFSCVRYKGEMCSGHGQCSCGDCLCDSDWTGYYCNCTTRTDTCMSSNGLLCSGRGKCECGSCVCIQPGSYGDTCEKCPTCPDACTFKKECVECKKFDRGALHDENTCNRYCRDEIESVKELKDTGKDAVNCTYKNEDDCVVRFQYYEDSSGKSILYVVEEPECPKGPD

Turning to “SEQ ID NO: 32: VKKX tag, amino acid sequence VKKTKTKD (VKKX Tag)”, the “Biosynthesis amount of fusion protein” value in test [1] was 8.04; in test [2], 20.56.

Regarding “SEQ ID NO: 50: VKKX tag, amino acid sequence VKKTKTKDKK (VKKX Tag)”, the “Biosynthesis amount of fusion protein” value amounted to 7.78 in test [1] and 35.42 in test [2].

On to “SEQ ID NO: 52: VKKX tag, amino acid sequence VKKTKTKTDTT (VKKX Tag)”, for which the “increase of biosynthesis amount of the fusion protein” value in test [1] (Example 1, versus control without tag, 1 hour) was 4.3 times. Further, the “Biosynthesis amount of fusion protein” value in test [1] worked out at 4.33; in test [2], 9.15.

Take “SEQ ID NO: 47: VKKX tag, amino acid sequence VKKTKTKKDK (VKKX Tag)”: the “Biosynthesis amount of fusion protein” value in test [1] was determined as 8.90; in test [2], 15.53.

As to “SEQ ID NO: 39: VKKX tag, amino acid sequence VKKTKTKTT (VKKX Tag)”, the “Biosynthesis amount of fusion protein” value was found to be 7.22 in test [1] and 7.57 in test [2].

“SEQ ID NO: 43: VKKX tag, amino acid sequence VKKTKTTKK (VKKX Tag)”: the results for the “Biosynthesis amount of fusion protein” value in test [1] and in test [2] were 9.45 and 23.35, respectively.

Turning to “SEQ ID NO: 51: VKKX tag, amino acid sequence VKKTKTTTKK (VKKX Tag)”, the “Biosynthesis amount of fusion protein” value in test [1] amounted to 6.29; in test [2], 15.28.

For “SEQ ID NO: 30: VKKX tag, amino acid sequence VKKTKTKK (VKKX Tag)”, the entries for the “Biosynthesis amount of fusion protein” value in test [1] and in test [2] were 9.01 and 24.42, respectively.

On to “SEQ ID NO: 45: VKKX tag, amino acid sequence VKKTKTTKD (VKKX Tag)”, for which the “Biosynthesis amount of fusion protein” value in test [1] amounted to 7.83; in test [2], 10.61.

As for “SEQ ID NO: 34: VKKX tag, amino acid sequence VKKTKTTT (VKKX Tag)”, the “Biosynthesis amount of fusion protein” value in test [1] is listed as 6.69; in test [2] it was 8.59.

For “SEQ ID NO: 41: VKKX tag, amino acid sequence VKKTKTKDT (VKKX Tag)”, the “Biosynthesis amount of fusion protein” value in test [1] was 6.27; in test [2], 28.80.

As for “SEQ ID NO: 37: VKKX tag, amino acid sequence VKKTKTKKD (VKKX Tag)”, the “Biosynthesis amount of fusion protein” value in test [1] is listed as 11.45; in test [2] it was 19.84.

B1: chemically synthesized integrin binding peptide (SEQ ID NO: 126) (peptide)
peptide: CEPRGDNYRK(ClAc)GGSKKK
notes: Immobilized on a CM5 chip by amine coupling; also called CEPRGDNYRXGGSKKK
For B1, the Kd (as a rule, the constant that tells how readily two partners part at equilibrium) in test [3] worked out at 7.6 nM.
